≈ marks a conversion by molar mass, not a printed value.

In one assay the test system is Enterococcus faecalis. Briefly: Antibacterial activity against multidrug resistant Enterococcus faecalis ATCC 51299. Type of assay: functional.
What is called MIC is the smallest concentration in the dilution series that meets the test's criterion for growth inhibition. The low end stands for inhibition by little substance, the high end for a need for much substance. Turning to `CCCCCCc1c(-c2ccc(OCC(=O)CN[C@H](CCCNC(=N)N)C(N)=O)cc2OCC(=O)CN[C@H](CCCNC(=N)N)C(N)=O)oc2cc(OC)cc(O)c2c1=O`, the minimal inhibitory concentration (MIC) is > 64 µg/mL.

For the compound `CCCCCCc1c(-c2ccc(OCCCCNCCC)cc2OCCCCNCCC)oc2cc(OC)cc(O)c2c1=O`, inhibition of growth (MIC) required 2 µg/mL (≈ 3.27 µM).

As to `CCCCCCc1c(-c2ccc(OCCCCN(CC)CC)cc2OCCCCN(CC)CC)oc2cc(OC)cc(O)c2c1=O`, the MIC stood at 4 µg/mL (≈ 6.26 µM).

Compound `CCCCCCCCCCc1c(-c2ccc(O)cc2O)oc2cc(OC)cc(O)c2c1=O` came in with an MIC of 16 µg/mL (≈ 36.3 µM).

Consider `CC(C)=CCC/C(C)=C/CCCc1c(-c2ccc(O)cc2O)oc2cc(O)cc(O)c2c1=O`, for which the MIC is > 64 µg/mL.

`CCCCCCCCCCCCc1c(-c2ccc(O)cc2O)oc2cc(O)cc(O)c2c1=O`: the MIC came to 64 µg/mL (≈ 141 µM).

For the compound `CCCCCc1c(-c2ccc(O)cc2O)oc2cc(OC)cc(O)c2c1=O`, the MIC was found to be 16 µg/mL (≈ 43.2 µM).

For `C=CCc1c(-c2ccc(OC)cc2OC)oc2cc(OC)cc(OC)c2c1=O`, the minimal inhibitory concentration (MIC) was > 64 µg/mL.

In the case of `CCCCCCCCCCCCCCCCc1c(-c2ccc(OC)cc2OC)oc2cc(OC)cc(OC)c2c1=O`, the MIC was > 64 µg/mL.

The next assay has as its system Staphylococcus aureus. Briefly: Antibacterial activity against methicillin resistant Staphylococcus aureus clinical isolate 031. Type of assay: functional.
Compound `CCCCCCc1c(-c2ccc(OCC(=O)CN[C@H](CCCNC(=N)N)C(N)=O)cc2OCC(=O)CN[C@H](CCCNC(=N)N)C(N)=O)oc2cc(OC)cc(O)c2c1=O` had an MIC of 8 µg/mL (≈ 9.54 µM).

Take `CCCCCCc1c(-c2ccc(OCCCCNCCC)cc2OCCCCNCCC)oc2cc(OC)cc(O)c2c1=O`: the MIC was determined as 2 µg/mL (≈ 3.27 µM).

With `CCCCCCc1c(-c2ccc(OCCCCN(CC)CC)cc2OCCCCN(CC)CC)oc2cc(OC)cc(O)c2c1=O`, the lowest concentration to inhibit growth (MIC) was 2 µg/mL (≈ 3.13 µM).

The next assay concerns Enterococcus faecalis. Briefly: Antibacterial activity against Enterococcus faecalis clinical isolate 7. In kind it is functional.
Take `CCCCCCc1c(-c2ccc(OCC(=O)CN[C@H](CCCNC(=N)N)C(N)=O)cc2OCC(=O)CN[C@H](CCCNC(=N)N)C(N)=O)oc2cc(OC)cc(O)c2c1=O`: the minimum inhibitory concentration (MIC) was > 64 µg/mL.

`CCCCCCc1c(-c2ccc(OCCCCNCCC)cc2OCCCCNCCC)oc2cc(OC)cc(O)c2c1=O`: it took 2 µg/mL (≈ 3.27 µM) to inhibit growth (MIC).

`CCCCCCc1c(-c2ccc(OCCCCN(CC)CC)cc2OCCCCN(CC)CC)oc2cc(OC)cc(O)c2c1=O` registered an MIC of 4 µg/mL (≈ 6.26 µM). This MIC is about 2-fold higher than that of the compound before.

Another assay has as its system Staphylococcus aureus. Briefly: Antibacterial activity against methicillin resistant Staphylococcus aureus clinical isolate 011. Type of assay: functional.
Compound `CCCCCCc1c(-c2ccc(OCC(=O)CN[C@H](CCCNC(=N)N)C(N)=O)cc2OCC(=O)CN[C@H](CCCNC(=N)N)C(N)=O)oc2cc(OC)cc(O)c2c1=O` yielded an MIC of 32 µg/mL (≈ 38.1 µM).

In turn, `CCCCCCc1c(-c2ccc(OCCCCNCCC)cc2OCCCCNCCC)oc2cc(OC)cc(O)c2c1=O` had an MIC of 2 µg/mL (≈ 3.27 µM).

As to `CCCCCCc1c(-c2ccc(OCCCCN(CC)CC)cc2OCCCCN(CC)CC)oc2cc(OC)cc(O)c2c1=O`, it took 2 µg/mL (≈ 3.13 µM) to inhibit growth (MIC).

Another assay deals with Staphylococcus aureus. Briefly: Antibacterial activity against methicillin resistant Staphylococcus aureus clinical isolate 003. Type of assay: functional.
`CCCCCCc1c(-c2ccc(OCC(=O)CN[C@H](CCCNC(=N)N)C(N)=O)cc2OCC(=O)CN[C@H](CCCNC(=N)N)C(N)=O)oc2cc(OC)cc(O)c2c1=O`: the MIC was found to be 8 µg/mL (≈ 9.54 µM).

For the compound `CCCCCCc1c(-c2ccc(OCCCCNCCC)cc2OCCCCNCCC)oc2cc(OC)cc(O)c2c1=O`, it took 2 µg/mL (≈ 3.27 µM) to inhibit growth (MIC).

In turn, `CCCCCCc1c(-c2ccc(OCCCCN(CC)CC)cc2OCCCCN(CC)CC)oc2cc(OC)cc(O)c2c1=O` had an MIC of 2 µg/mL (≈ 3.13 µM).

In the case of `CCCCCCCCCCc1c(-c2ccc(O)cc2O)oc2cc(OC)cc(O)c2c1=O`, the lowest concentration to inhibit growth (MIC) was 16 µg/mL (≈ 36.3 µM).

`CC(C)=CCC/C(C)=C/CCCc1c(-c2ccc(O)cc2O)oc2cc(O)cc(O)c2c1=O` came in with a minimal inhibitory concentration (MIC) of 32 µg/mL (≈ 71 µM).

Take `CCCCCCCCCCCCc1c(-c2ccc(O)cc2O)oc2cc(O)cc(O)c2c1=O`: 32 µg/mL (≈ 70.4 µM) was the least that counted as inhibitory (MIC).

As to `CCCCCc1c(-c2ccc(O)cc2O)oc2cc(OC)cc(O)c2c1=O`, the minimum inhibitory concentration (MIC) stood at 8 µg/mL (≈ 21.6 µM).

As for `C=CCc1c(-c2ccc(OC)cc2OC)oc2cc(OC)cc(OC)c2c1=O`, the minimum inhibitory concentration (MIC) was > 64 µg/mL.

In the case of `CCCCCCCCCCCCCCCCc1c(-c2ccc(OC)cc2OC)oc2cc(OC)cc(OC)c2c1=O`, the MIC was > 64 µg/mL.

Another assay deals with Staphylococcus aureus. The assay can be described thus: Antibacterial activity against Staphylococcus aureus clinical isolate 31. Type of assay: functional.
Compound `CCCCCCc1c(-c2ccc(OCC(=O)CN[C@H](CCCNC(=N)N)C(N)=O)cc2OCC(=O)CN[C@H](CCCNC(=N)N)C(N)=O)oc2cc(OC)cc(O)c2c1=O` had an MIC of 8 µg/mL (≈ 9.54 µM).

With `CCCCCCc1c(-c2ccc(OCCCCNCCC)cc2OCCCCNCCC)oc2cc(OC)cc(O)c2c1=O`, the minimum inhibitory concentration (MIC) came to 2 µg/mL (≈ 3.27 µM).

Compound `CCCCCCc1c(-c2ccc(OCCCCN(CC)CC)cc2OCCCCN(CC)CC)oc2cc(OC)cc(O)c2c1=O` gave an MIC of 1 µg/mL (≈ 1.57 µM).

The test system of the next assay is Enterococcus faecalis. Briefly: Antibacterial activity against Enterococcus faecalis clinical isolate 13. Type of assay: functional.
In the case of `CCCCCCc1c(-c2ccc(OCC(=O)CN[C@H](CCCNC(=N)N)C(N)=O)cc2OCC(=O)CN[C@H](CCCNC(=N)N)C(N)=O)oc2cc(OC)cc(O)c2c1=O`, the MIC is > 64 µg/mL.

`CCCCCCc1c(-c2ccc(OCCCCNCCC)cc2OCCCCNCCC)oc2cc(OC)cc(O)c2c1=O`: 2 µg/mL (≈ 3.27 µM) was the least that counted as inhibitory (MIC).

`CCCCCCc1c(-c2ccc(OCCCCN(CC)CC)cc2OCCCCN(CC)CC)oc2cc(OC)cc(O)c2c1=O`: the minimum inhibitory concentration (MIC) was found to be 2 µg/mL (≈ 3.13 µM).

The test system of a further assay is Staphylococcus aureus. Briefly: Antibacterial activity against Staphylococcus aureus clinical isolate 29. Type of assay: functional.
The compound `CCCCCCc1c(-c2ccc(OCC(=O)CN[C@H](CCCNC(=N)N)C(N)=O)cc2OCC(=O)CN[C@H](CCCNC(=N)N)C(N)=O)oc2cc(OC)cc(O)c2c1=O` showed an MIC of 32 µg/mL (≈ 38.1 µM).

Consider `CCCCCCc1c(-c2ccc(OCCCCNCCC)cc2OCCCCNCCC)oc2cc(OC)cc(O)c2c1=O`, for which the MIC came to 2 µg/mL (≈ 3.27 µM).

The compound `CCCCCCc1c(-c2ccc(OCCCCN(CC)CC)cc2OCCCCN(CC)CC)oc2cc(OC)cc(O)c2c1=O` yielded an MIC of 2 µg/mL (≈ 3.13 µM).

(Values after ChEMBL document CHEMBL5512659, “Structure optimizing of flavonoids against both MRSA and VRE” (Eur J Med Chem, 2024).)
